In publication PMC6199744, “Development of Chemical Proteomics for the Folateome and Analysis of the Kinetoplastid Folateome” (ACS Infectious Diseases, 2018):
Like-named read-outs stand apart in the source and are kept apart here.

Columns and labels:
Type in all cases: binding
[1] = biological target: T1, HeLa cell extract proteins (Homo sapiens, UniProt P35680)
T1 construct: endogenous in cells; host or cells: HeLa cell extract

[2] = biological target: T2, HeLa cell extract proteins (Homo sapiens, UniProt O00408)
T2 construct: endogenous in cells; host or cells: HeLa cell extract
T2 sequence (O00408 whole entry): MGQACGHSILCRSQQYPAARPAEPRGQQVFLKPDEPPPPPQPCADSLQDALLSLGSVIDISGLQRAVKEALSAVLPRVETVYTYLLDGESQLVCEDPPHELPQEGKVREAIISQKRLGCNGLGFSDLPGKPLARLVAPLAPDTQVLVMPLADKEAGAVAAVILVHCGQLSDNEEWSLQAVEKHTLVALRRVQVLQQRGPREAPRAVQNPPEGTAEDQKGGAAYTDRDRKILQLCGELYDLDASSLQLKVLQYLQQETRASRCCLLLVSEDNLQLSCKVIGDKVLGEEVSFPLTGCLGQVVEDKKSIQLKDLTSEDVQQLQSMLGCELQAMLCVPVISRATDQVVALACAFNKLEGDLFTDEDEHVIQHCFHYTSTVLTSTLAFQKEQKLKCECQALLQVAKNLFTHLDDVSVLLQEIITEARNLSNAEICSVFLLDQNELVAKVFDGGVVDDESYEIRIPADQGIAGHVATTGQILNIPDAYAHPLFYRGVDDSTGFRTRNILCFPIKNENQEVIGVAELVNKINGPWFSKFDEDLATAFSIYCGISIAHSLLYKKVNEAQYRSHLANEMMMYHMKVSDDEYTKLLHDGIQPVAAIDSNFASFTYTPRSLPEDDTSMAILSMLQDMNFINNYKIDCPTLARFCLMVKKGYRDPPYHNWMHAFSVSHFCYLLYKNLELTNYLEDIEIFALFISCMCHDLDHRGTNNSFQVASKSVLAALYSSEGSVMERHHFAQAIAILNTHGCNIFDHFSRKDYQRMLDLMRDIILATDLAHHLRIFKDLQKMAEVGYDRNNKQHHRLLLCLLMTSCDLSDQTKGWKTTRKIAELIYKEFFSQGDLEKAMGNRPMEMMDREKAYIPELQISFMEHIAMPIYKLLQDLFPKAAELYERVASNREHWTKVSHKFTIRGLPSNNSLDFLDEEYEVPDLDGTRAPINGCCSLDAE

[3] = biological target: T3, HeLa cell extract proteins (Homo sapiens, UniProt Q9Y233)
T3 construct: endogenous in cells; host or cells: HeLa cell extract
T3 sequence (Q9Y233 whole entry): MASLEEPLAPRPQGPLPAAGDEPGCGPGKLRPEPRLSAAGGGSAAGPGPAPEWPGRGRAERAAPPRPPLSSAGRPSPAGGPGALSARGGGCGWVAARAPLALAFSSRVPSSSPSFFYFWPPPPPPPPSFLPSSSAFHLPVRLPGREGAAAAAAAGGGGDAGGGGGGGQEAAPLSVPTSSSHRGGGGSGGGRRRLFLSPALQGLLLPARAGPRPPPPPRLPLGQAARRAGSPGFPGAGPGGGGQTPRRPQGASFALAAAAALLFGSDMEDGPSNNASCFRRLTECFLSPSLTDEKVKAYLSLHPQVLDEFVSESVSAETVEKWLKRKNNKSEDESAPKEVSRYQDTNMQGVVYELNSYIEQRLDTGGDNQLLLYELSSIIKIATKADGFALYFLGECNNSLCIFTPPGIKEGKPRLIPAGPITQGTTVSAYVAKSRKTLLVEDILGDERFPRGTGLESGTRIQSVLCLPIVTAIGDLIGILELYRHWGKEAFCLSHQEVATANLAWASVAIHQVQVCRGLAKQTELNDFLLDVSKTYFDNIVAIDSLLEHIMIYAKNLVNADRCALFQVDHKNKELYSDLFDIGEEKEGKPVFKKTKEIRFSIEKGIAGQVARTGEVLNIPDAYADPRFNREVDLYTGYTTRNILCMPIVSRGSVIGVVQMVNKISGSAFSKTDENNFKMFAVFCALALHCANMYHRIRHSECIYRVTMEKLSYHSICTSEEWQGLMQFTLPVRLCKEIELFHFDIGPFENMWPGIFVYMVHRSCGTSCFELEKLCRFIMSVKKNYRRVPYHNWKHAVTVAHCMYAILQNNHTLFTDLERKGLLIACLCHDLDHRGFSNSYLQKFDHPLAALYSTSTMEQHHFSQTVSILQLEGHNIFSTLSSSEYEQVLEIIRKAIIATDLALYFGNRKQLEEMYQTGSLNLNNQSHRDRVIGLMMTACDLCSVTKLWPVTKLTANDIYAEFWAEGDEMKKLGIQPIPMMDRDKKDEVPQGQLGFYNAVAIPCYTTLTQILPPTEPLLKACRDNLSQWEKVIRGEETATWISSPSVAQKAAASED

[4] = biological target: T4, HeLa cell extract proteins (Homo sapiens, UniProt P49720)
T4 construct: endogenous in cells; host or cells: HeLa cell extract
T4 sequence (P49720 1-205): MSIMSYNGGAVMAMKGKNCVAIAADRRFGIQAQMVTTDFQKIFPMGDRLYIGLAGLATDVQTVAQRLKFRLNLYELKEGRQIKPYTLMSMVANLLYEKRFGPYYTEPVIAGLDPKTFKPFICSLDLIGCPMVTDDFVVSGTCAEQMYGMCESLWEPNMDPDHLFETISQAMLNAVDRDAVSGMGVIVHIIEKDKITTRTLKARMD

[5] = biological target: T5, HeLa cell extract proteins (Homo sapiens, UniProt O95218)
T5 construct: endogenous in cells; host or cells: HeLa cell extract
T5 sequence (O95218 1-330): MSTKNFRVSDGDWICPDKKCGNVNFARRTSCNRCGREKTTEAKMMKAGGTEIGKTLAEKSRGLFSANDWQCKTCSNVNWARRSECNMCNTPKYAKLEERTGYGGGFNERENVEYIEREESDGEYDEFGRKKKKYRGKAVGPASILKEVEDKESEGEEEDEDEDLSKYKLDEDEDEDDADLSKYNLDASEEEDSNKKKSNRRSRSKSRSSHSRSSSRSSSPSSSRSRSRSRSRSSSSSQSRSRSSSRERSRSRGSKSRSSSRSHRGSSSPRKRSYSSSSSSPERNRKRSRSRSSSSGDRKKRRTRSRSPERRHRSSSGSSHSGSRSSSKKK

[6] = biological target: T6, HeLa cell extract proteins (Homo sapiens, UniProt O95487)
T6 construct: endogenous in cells; host or cells: HeLa cell extract
T6 sequence (O95487 1-1268): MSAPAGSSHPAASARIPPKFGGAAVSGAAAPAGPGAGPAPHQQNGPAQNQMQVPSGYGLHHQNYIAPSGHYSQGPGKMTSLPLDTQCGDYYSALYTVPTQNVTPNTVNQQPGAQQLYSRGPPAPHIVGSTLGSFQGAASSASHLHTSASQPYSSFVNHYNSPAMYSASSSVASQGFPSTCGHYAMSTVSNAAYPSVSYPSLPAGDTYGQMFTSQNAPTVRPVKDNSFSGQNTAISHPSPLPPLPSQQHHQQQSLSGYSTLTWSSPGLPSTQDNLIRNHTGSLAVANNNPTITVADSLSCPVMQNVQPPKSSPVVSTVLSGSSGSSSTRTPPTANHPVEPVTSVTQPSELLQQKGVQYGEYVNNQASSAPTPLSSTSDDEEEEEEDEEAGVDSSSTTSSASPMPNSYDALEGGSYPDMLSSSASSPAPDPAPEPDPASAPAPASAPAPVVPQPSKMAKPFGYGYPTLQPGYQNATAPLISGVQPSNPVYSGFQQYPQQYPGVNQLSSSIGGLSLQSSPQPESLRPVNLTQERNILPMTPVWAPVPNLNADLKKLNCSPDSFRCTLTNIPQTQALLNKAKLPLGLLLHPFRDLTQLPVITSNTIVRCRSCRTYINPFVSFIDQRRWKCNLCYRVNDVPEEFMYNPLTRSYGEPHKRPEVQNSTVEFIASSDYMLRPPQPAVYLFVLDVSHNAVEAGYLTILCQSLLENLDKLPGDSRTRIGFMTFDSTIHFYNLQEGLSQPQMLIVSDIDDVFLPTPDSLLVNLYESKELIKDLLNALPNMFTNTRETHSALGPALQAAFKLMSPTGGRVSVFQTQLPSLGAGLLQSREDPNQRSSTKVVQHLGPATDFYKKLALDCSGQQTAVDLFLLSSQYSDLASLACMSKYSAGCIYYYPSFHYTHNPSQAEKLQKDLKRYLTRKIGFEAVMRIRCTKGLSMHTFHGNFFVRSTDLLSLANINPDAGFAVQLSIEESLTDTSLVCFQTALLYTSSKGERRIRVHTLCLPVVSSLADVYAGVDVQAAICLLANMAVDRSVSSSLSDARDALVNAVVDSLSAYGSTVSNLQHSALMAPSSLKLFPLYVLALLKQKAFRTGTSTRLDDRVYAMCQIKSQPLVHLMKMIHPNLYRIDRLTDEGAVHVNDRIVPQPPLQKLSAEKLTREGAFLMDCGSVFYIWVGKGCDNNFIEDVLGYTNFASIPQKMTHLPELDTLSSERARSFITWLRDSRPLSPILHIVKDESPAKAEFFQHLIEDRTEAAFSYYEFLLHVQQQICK

[7] = biological target: T7, HeLa cell extract proteins (Homo sapiens, UniProt P62820)
T7 construct: endogenous in cells; host or cells: HeLa cell extract
T7 sequence (P62820 whole entry): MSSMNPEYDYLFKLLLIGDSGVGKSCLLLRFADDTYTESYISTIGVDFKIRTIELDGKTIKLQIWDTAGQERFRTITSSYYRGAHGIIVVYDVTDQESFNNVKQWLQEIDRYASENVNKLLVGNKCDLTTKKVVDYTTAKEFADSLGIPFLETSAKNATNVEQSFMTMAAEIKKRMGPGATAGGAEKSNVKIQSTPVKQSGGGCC

[8] = biological target: T8, HeLa cell extract proteins (Homo sapiens, UniProt O75874)
T8 construct: endogenous in cells; host or cells: HeLa cell extract
T8 sequence (O75874 whole entry): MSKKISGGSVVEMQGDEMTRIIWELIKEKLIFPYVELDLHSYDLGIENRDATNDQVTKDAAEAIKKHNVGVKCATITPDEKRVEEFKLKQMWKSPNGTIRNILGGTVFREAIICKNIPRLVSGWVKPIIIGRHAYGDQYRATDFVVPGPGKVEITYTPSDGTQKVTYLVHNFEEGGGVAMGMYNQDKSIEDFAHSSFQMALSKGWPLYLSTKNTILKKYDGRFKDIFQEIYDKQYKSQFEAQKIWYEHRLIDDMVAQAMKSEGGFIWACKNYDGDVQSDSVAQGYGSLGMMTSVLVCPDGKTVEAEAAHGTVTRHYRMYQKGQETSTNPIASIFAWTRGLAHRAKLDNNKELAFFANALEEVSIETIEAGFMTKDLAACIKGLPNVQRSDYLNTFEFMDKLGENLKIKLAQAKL

[9] = biological target: T9, HeLa cell extract proteins (Homo sapiens, UniProt Q63HN8)
T9 construct: endogenous in cells; host or cells: HeLa cell extract

[10] = biological target: T10, HeLa cell extract proteins (Homo sapiens, UniProt Q9Y3F4)
T10 construct: endogenous in cells; host or cells: HeLa cell extract
T10 sequence (Q9Y3F4 1-350): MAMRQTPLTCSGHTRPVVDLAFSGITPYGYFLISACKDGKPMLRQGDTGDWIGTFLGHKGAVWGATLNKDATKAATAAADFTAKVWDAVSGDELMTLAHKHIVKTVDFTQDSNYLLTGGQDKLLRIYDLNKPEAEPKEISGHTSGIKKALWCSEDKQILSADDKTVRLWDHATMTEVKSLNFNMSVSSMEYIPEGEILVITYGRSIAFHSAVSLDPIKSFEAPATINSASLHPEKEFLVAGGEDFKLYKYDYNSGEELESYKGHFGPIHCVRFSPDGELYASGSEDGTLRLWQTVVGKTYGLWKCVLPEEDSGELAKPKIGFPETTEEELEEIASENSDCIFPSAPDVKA

[11] = HeLa, protein IDH1 (ISOCITRATE DEHYDROGENASE [NADP] CYTOPLASMIC.)

T1 sequence (P35680 whole entry): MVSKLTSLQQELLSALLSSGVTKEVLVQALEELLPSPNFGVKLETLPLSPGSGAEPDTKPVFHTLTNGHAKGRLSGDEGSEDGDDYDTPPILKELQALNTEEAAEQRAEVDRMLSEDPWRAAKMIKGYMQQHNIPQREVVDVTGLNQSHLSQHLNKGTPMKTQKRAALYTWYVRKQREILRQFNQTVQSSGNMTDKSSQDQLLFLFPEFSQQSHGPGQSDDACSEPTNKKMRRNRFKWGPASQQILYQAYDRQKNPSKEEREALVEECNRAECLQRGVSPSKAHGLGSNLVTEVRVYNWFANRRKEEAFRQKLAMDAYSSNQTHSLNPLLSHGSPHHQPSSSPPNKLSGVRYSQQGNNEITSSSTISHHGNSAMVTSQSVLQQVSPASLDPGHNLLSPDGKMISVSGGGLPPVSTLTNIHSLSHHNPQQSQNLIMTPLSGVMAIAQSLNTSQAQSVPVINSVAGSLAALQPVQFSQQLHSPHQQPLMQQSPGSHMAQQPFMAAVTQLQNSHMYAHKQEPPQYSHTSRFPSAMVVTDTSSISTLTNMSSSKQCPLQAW

Nc1nc2c(c(=O)[nH]1)N(C=O)C(CNc1ccc(C(=O)N[C@@H](CCC(=O)O)C(=O)O)cc1)CN2 (stereo partly shown) [LEU, leucovorin]
fold changes relative to vehicle control ([1]; HeLa, protein HNF1B): 0.87 | fold changes relative to vehicle control ([2]; protein PDE2A, HeLa): 0.73 | fold changes relative to vehicle control ([3]; protein PDE10A, HeLa): 1.01 | fold changes relative to vehicle control ([4]; HeLa, protein PSMB3): 1.13 | fold changes relative to vehicle control ([5]; protein ZRANB2, HeLa): 0.82 | fold changes relative to vehicle control ([6]; HeLa, captured protein SEC24B): 1.06 | fold changes relative to vehicle control ([7]; HeLa, protein RAB1A): 1.2 | fold changes relative to vehicle control ([8]; HeLa, captured protein IDH1): 1.14 | fold changes relative to vehicle control ([9]; HeLa, protein KIAA1618): 0.87 | fold changes relative to vehicle control ([10]; protein STRAP, HeLa): 0.85

Nc1nc2[nH]cc(CCc3ccc(C(=O)N[C@@H](CCC(=O)O)C(=O)O)cc3)c2c(=O)[nH]1 [PTX, pemetrexed]
fold changes relative to vehicle control [1]: 0.82 | fold changes relative to vehicle control [2]: 0.71 | fold changes relative to vehicle control [3]: 0.66 | fold changes relative to vehicle control [4]: 0.99 | fold changes relative to vehicle control [5]: 0.87 | fold changes relative to vehicle control [6]: 0.94 | fold changes relative to vehicle control [7]: 1.17 | fold changes relative to vehicle control [8]: 1.18 | fold changes relative to vehicle control [9]: 1.01 | fold changes relative to vehicle control [10]: 1

CCCCCCOc1ccc(Cc2cnc(N)nc2N)cc1 [compound 1]
fold changes relative to vehicle control ([1]; captured protein HNF1B, HeLa): 0.64 | fold changes relative to vehicle control ([2]; protein PDE2A, HeLa): 0.61 | fold changes relative to vehicle control ([3]; captured protein PDE10A, HeLa): 0.96 | fold changes relative to vehicle control ([4]; protein PSMB3, HeLa): 1.13 | fold changes relative to vehicle control ([5]; HeLa, protein ZRANB2): 1.04 | fold changes relative to vehicle control ([6]; protein SEC24B, HeLa): 1.05 | fold changes relative to vehicle control ([7]; captured protein RAB1A, HeLa): 0.74 | fold changes relative to vehicle control [8, 11]: 1.52 fold | fold changes relative to vehicle control ([9]; protein KIAA1618, HeLa): 0.98 | fold changes relative to vehicle control ([10]; protein STRAP, HeLa): 1.07

CCCCCCOc1cccc(Cc2cnc(N)nc2N)c1 [compound 2]
fold changes relative to vehicle control ([1]; captured protein HNF1B, HeLa): 1.01 | fold changes relative to vehicle control ([2]; protein PDE2A, HeLa): 1.7 | fold changes relative to vehicle control ([3]; captured protein PDE10A, HeLa): 0.94 | fold changes relative to vehicle control ([4]; protein PSMB3, HeLa): 1.53 | fold changes relative to vehicle control ([5]; HeLa, protein ZRANB2): 1.23 | fold changes relative to vehicle control ([6]; protein SEC24B, HeLa): 1.15 | fold changes relative to vehicle control ([7]; captured protein RAB1A, HeLa): 1.19 | fold changes relative to vehicle control [8, 11]: 2.46 fold | fold changes relative to vehicle control ([9]; protein KIAA1618, HeLa): 0.95 | fold changes relative to vehicle control ([10]; protein STRAP, HeLa): 1.28

Nc1nc2cccc(-c3ccccc3)c2n1Cc1ccc(Cl)c(Cl)c1 [compound 3]
fold changes relative to vehicle control ([1]; captured protein HNF1B, HeLa): 1 | fold changes relative to vehicle control ([2]; protein PDE2A, HeLa): 0.64 | fold changes relative to vehicle control ([3]; captured protein PDE10A, HeLa): 0.99 | fold changes relative to vehicle control ([4]; protein PSMB3, HeLa): 0.92 | fold changes relative to vehicle control ([5]; HeLa, protein ZRANB2): 0.98 | fold changes relative to vehicle control ([6]; protein SEC24B, HeLa): 1.01 | fold changes relative to vehicle control ([7]; captured protein RAB1A, HeLa): 0.91 | fold changes relative to vehicle control [8, 11]: 0.95 fold | fold changes relative to vehicle control ([9]; protein KIAA1618, HeLa): 1.04 | fold changes relative to vehicle control ([10]; protein STRAP, HeLa): 1.11

NCCOCCOCC(=O)Nc1nc2ncc(CNc3ccc(C(=O)NC(CCC(=O)O)C(=O)O)cc3)nc2c(=O)[nH]1 (stereo not shown) [compound 6]
fold changes relative to vehicle control ([1]; HeLa, protein HNF1B): 0.81 | fold changes relative to vehicle control ([2]; protein PDE2A, HeLa): 0.79 | fold changes relative to vehicle control ([3]; protein PDE10A, HeLa): 0.78 | fold changes relative to vehicle control ([4]; HeLa, protein PSMB3): 1.12 | fold changes relative to vehicle control ([5]; protein ZRANB2, HeLa): 0.95 | fold changes relative to vehicle control ([6]; HeLa, captured protein SEC24B): 0.94 | fold changes relative to vehicle control ([7]; HeLa, protein RAB1A): 1.21 | fold changes relative to vehicle control ([8]; HeLa, captured protein IDH1): 1.29 | fold changes relative to vehicle control ([9]; HeLa, protein KIAA1618): 1.21 | fold changes relative to vehicle control ([10]; protein STRAP, HeLa): 1.08

NCCCNc1ccc(C(=O)NC(CCC(=O)O)C(=O)O)cc1 (stereo not shown) [compound 7]
fold changes relative to vehicle control ([1]; HeLa, protein HNF1B): 1.07 | fold changes relative to vehicle control ([2]; protein PDE2A, HeLa): 0.7 | fold changes relative to vehicle control ([3]; protein PDE10A, HeLa): 1 | fold changes relative to vehicle control ([4]; HeLa, protein PSMB3): 0.92 | fold changes relative to vehicle control ([5]; protein ZRANB2, HeLa): 0.77 | fold changes relative to vehicle control ([6]; HeLa, captured protein SEC24B): 1.06 | fold changes relative to vehicle control ([7]; HeLa, protein RAB1A): 1.07 | fold changes relative to vehicle control ([8]; HeLa, captured protein IDH1): 0.96 | fold changes relative to vehicle control ([9]; HeLa, protein KIAA1618): 1 | fold changes relative to vehicle control ([10]; protein STRAP, HeLa): 0.86
